Assays:
DGKζ = DGKζ (Homo sapiens (Human), UniProt Q13574); test: Biochemical DGK IC50 assay, DGKζ ADP-Glo assay; conditions: 0.5 nM enzyme, 140 μM ATP, 80 μM DAG; read-out: DGKζ ADP-Glo assay IC50
Outline: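 ADP formation measured by ADP-Glo luminescence, with test compounds at final 1.55–10000 nM or 23.3–150000 nM. Enzyme: purified full-length human DGKζ from Sf9 insect cells; substrate: DAG/PS micelles in 25 mM HEPES pH 7.0, 0.5 mM EDTA, octyl glucoside.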

DGKα = DGKα (Homo sapiens (Human), UniProt P23743); test: Biochemical DGK IC50 assay, DGKα ADP-Glo assay; conditions: 7.5 nM enzyme, 140 μM ATP, 80 μM DAG
DGKα, sequence (P23743 whole entry): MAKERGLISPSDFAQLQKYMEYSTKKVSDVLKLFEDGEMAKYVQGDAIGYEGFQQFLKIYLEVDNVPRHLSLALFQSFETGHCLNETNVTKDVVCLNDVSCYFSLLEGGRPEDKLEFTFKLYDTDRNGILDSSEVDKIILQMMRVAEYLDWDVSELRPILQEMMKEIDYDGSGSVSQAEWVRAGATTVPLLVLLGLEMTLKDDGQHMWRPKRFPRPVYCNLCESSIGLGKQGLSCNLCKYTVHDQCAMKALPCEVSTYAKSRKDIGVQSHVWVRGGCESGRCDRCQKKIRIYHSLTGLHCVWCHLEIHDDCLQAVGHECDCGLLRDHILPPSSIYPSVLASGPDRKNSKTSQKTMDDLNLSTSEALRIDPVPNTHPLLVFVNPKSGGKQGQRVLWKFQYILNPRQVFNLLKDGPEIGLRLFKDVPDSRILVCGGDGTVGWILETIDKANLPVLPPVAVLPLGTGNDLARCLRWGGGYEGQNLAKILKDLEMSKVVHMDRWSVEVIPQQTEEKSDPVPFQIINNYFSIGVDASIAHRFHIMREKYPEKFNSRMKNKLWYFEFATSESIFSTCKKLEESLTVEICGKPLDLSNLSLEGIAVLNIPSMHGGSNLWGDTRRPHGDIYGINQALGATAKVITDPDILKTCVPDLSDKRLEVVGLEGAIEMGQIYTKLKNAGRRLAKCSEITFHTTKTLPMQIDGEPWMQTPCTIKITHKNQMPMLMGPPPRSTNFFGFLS
Outline: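 Compounds at final 1.55˜10000 nM or 23.3˜150000 nM were tested against full-length DGKα. Substrate was lipid micelles of DAG and PS resuspended in 25 mM HEPES pH 7.0 with 0.5 mM EDTA and 160 mM octyl β-D-glucopyranoside. ADP formed was detected by ADP-Glo.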

DGKζ, sequence (Q13574 other isoform, or with tags, fused parts or gaps): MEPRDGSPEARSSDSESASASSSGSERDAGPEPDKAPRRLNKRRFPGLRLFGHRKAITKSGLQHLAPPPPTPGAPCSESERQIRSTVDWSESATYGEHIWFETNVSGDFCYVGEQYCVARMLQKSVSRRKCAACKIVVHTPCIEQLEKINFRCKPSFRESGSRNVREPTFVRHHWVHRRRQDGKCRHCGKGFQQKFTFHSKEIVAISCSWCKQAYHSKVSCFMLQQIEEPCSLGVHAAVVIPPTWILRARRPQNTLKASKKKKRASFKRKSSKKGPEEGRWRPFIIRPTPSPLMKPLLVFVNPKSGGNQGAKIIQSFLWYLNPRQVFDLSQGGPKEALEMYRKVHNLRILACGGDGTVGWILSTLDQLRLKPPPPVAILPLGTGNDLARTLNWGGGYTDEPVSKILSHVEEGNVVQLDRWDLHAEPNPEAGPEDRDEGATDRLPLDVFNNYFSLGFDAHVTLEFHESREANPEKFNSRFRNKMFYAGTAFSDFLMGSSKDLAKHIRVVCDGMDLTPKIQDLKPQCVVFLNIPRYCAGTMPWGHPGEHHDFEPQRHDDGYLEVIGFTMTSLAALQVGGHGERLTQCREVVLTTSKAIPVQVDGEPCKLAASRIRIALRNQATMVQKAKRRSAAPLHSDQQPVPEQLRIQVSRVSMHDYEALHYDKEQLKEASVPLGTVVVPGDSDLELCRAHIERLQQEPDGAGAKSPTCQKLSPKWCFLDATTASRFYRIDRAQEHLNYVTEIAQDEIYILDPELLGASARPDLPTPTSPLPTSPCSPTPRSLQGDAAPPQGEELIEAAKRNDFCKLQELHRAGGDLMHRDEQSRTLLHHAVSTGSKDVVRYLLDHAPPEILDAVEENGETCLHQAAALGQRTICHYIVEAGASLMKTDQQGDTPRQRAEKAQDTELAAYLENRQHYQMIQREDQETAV

Row | IC50 (DGKζ) [µM] | IC50 (DGKα) [µM] | Structure (SMILES)
1 | 0.556 | 0.029 | CC[C@H]1CN(C(C)c2ccc(C)cn2)[C@H](CC)CN1c1cc(=O)n(C)c2cn(CC#N)nc12 (some centres unmarked) [Compound A346]
2 | 0.249 | 0.945 | CC[C@H]1CN(C(C)c2ccc(C3CC3)nc2)[C@H](CC)CN1c1cc(=O)n(C)c2cn(CC#N)nc12 (stereo partly drawn) [Compound A350, 2-(7-((2S,5R)-4-(1-(6-cyclopropylpyridin-3-yl)ethyl)-2,5-diethylpiperazin-1-yl)-4-methyl-5-oxo-4,5-dihydro-2H-pyrazolo[4,3-b]pyridin-2-yl)acetonitrile]
3 | 0.055 | 0.166 | CC[C@H]1CN(C(C)c2ccc(C)c(C)n2)[C@H](CC)CN1c1cc(=O)n(C)c2cn(CC#N)nc12 (some centres unmarked) [Compound A363]
4 | 4.71 | 0.794 | CC[C@H]1CN(C(C)c2ccc(C)nn2)[C@H](CC)CN1c1cc(=O)n(C)c2cn(CC#N)nc12 (some centres unmarked) [Compound A365]
5 | 0.644 | 0.366 | CC[C@H]1CN(C(C)c2ccc3cc(C)ncc3c2)[C@H](CC)CN1c1cc(=O)n(C)c2cn(CC#N)nc12 (some centres unmarked) [Compound A366]
6 | 3.59 | 19.3 | CC[C@H]1CN(C(C)c2cc3ccccc3c(C)n2)[C@H](CC)CN1c1cc(=O)n(C)c2cn(CC#N)nc12 (some centres unmarked) [Compound A367]
7 | 3.22 | 21.8 | CC[C@@H]1CN(c2cc(=O)n(C)c3cn(CC#N)nc23)[C@@H](CC)CN1C(=O)c1ccc2cccnc2c1 [Compound A373]
8 | 0.173 | 0.094 | CC[C@H]1CN(C(C)c2ccc(OC)cc2)[C@H](CC)CN1c1cc(=O)n(C)c2cn(CC#N)nc12 (some centres unmarked) [Compound A377]
9 | 0.099 | 1.75 | CC[C@H]1CN(C(C)c2ccc(C)c(C)c2)[C@H](CC)CN1c1cc(=O)n(C)c2cn(CC#N)nc12 (some centres unmarked) [Compound A384]
10 | 1.25 | 1.39 | CC[C@H]1CN(C(C)c2cn3ccccc3n2)[C@H](CC)CN1c1cc(=O)n(C)c2cn(CC#N)nc12 (some centres unmarked) [Compound A388]
11 | 0.201 | 0.043 | CC[C@H]1CN(C(C)c2cc3ccccn3n2)[C@H](CC)CN1c1cc(=O)n(C)c2cn(CC#N)nc12 (some centres unmarked) [Compound A389]
12 | 0.49 | 4.58 | CC#CCn1cc2c(n1)c(N1C[C@@H](C)N(C(C)c3ccc4c(c3)OC(C)(C)O4)C[C@@H]1C)cc(=O)n2C (stereo partly drawn) [Compound A390, 2-(but-2-yn-1-yl)-7-((2S,5R)-4-(1-(2,2-dimethylbenzo[d][1,3]dioxol-5-yl)ethyl)-2,5-dimethylpiperazin-1-yl)-4-methyl-2,4-dihydro-5H-pyrazolo[4,3-b]pyridin-5-one]
13 | 1.65 | 1.18 | CC#CCn1cc2c(n1)c(N1C[C@@H](C)N(C(C)c3ccc4c(c3)OC(F)(F)O4)C[C@@H]1C)cc(=O)n2C (some centres unmarked) [Compound A391]
14 | 0.795 | 0.108 | CC#CCn1cc2c(n1)c(N1C[C@@H](CC)N(C(C)c3cc4ccccc4cn3)C[C@@H]1C)cc(=O)n2C (stereo partly drawn) [Compound A393, 2-(but-2-yn-1-yl)-7-((2S,5R)-5-ethyl-4-(1-(isoquinolin-3-yl)ethyl)-2-methylpiperazin-1-yl)-4-methyl-2,4-dihydro-5H-pyrazolo[4,3-b]pyridin-5-one]
15 | 0.272 | 0.222 | CC#CCn1cc2c(n1)c(N1C[C@@H](CC)N(C(C)c3ccc4cccnc4c3)C[C@@H]1C)cc(=O)n2C (some centres unmarked) [Compound A395]

The remaining lines, values behind:

Row | Structure (SMILES) | IC50 (DGKζ) [µM] | IC50 (DGKα) [µM]
16 | CC[C@H]1CN(C(C)c2ccc(CN3C[C@@H](C)O[C@@H](C)C3)cc2)[C@H](CC)CN1c1cc(=O)n(C)c2cn(CC#N)nc12 (stereo partly drawn) [Compound A343, 2-(7-((2S,5R)-4-(1-(4-(((2S,6R)-2,6-dimethylmorpholino)methyl)phenyl)ethyl)-2,5-diethylpiperazin-1-yl)-4-methyl-5-oxo-4,5-dihydro-2H-pyrazolo[4,3-b]pyridin-2-yl)acetonitrile] | 0.675 | 0.246
17 | CC[C@H]1CN(C(C)c2ccc(CN3CCC(F)(F)CC3)cc2)[C@H](CC)CN1c1cc(=O)n(C)c2cn(CC#N)nc12 (some centres unmarked) [Compound A344] | 0.198 | 0.108
18 | CC[C@H]1CN(C(C)c2ccc(C(C)(C)C#N)cc2F)[C@H](CC)CN1c1cc(=O)n(C)c2cn(CC#N)nc12 (stereo partly drawn) [Compound A345, 2-(4-(1-((2R,5S)-4-(2-(cyanomethyl)-4-methyl-5-oxo-4,5-dihydro-2H-pyrazolo[4,3-b]pyridin-7-yl)-2,5-diethylpiperazin-1-yl)ethyl)-3-fluorophenyl)-2-methylpropanenitrile] | 0.205 | 0.852
19 | CC[C@H]1CN(C(C)c2ccc3c(n2)C(C)(C)CO3)[C@H](CC)CN1c1cc(=O)n(C)c2cn(CC#N)nc12 (stereo partly drawn) [Compound A352, 2-(7-((2S,5R)-4-(1-(3,3-dimethyl-2,3-dihydrofuro[3,2-b]pyridin-5-yl)ethyl)-2,5-diethylpiperazin-1-yl)-4-methyl-5-oxo-4,5-dihydro-2H-pyrazolo[4,3-b]pyridin-2-yl)acetonitrile] | 0.006 | 5.4
20 | CC[C@H]1CN(C(C)c2cnc(C)cn2)[C@H](CC)CN1c1cc(=O)n(C)c2cn(CC#N)nc12 (some centres unmarked) [Compound A356] | 1.57 | 0.635
21 | CC[C@H]1CN(C(C)c2cnc(OC(C)C)cc2F)[C@H](CC)CN1c1cc(=O)n(C)c2cn(CC#N)nc12 (some centres unmarked) [Compound A358] | 0.373 | 5.83
22 | CC[C@H]1CN(C(C)c2ncc(C)cc2F)[C@H](CC)CN1c1cc(=O)n(C)c2cn(CC#N)nc12 (some centres unmarked) [Compound A359] | 0.299 | 0.117
23 | CC[C@H]1CN(C(C)c2ccc(OC(F)(F)F)cn2)[C@H](CC)CN1c1cc(=O)n(C)c2cn(CC#N)nc12 (some centres unmarked) [Compound A361] | 0.554 | 0.0051
24 | CC[C@H]1CN(C(C)c2ccc(C)c(OC)n2)[C@H](CC)CN1c1cc(=O)n(C)c2cn(CC#N)nc12 (some centres unmarked) [Compound A364] | 0.288 | 2.52
25 | CC[C@@H]1CN(c2cc(=O)n(C)c3cn(CC#N)nc23)[C@@H](CC)CN1C(=O)c1ccc(C2CC2)cc1 [Compound A369] | 1.09 | 0.294
26 | CC[C@@H]1CN(c2cc(=O)n(C)c3cn(CC#N)nc23)[C@@H](CC)CN1C(=O)c1ccc(C)cn1 [Compound A370] | > 10 | 0.363
27 | CC[C@@H]1CN(c2cc(=O)n(C)c3cn(CC#N)nc23)[C@@H](CC)CN1C(=O)c1cc2cnccc2cn1 [Compound A371] | > 10 | 0.717
28 | CC[C@@H]1CN(c2cc(=O)n(C)c3cn(CC#N)nc23)[C@@H](CC)CN1C(=O)c1cc2ccccc2cn1 [Compound A372] | 3.45 | 0.127
29 | CC[C@@H]1CN(c2cc(=O)n(C)c3cn(CC#N)nc23)[C@@H](CC)CN1C(=O)c1cnc2ccccc2n1 [Compound A374] | 0.051 | 0.618
30 | CC[C@H]1CN(C(C)c2ccc(OC3CCOC3)cc2)[C@H](CC)CN1c1cc(=O)n(C)c2cn(CC#N)nc12 (stereo partly drawn) [Compound A375, 2-(7-((2S,5R)-2,5-diethyl-4-(1-(4-((tetrahydrofuran-3-yl)oxy)phenyl)ethyl)piperazin-1-yl)-4-methyl-5-oxo-4,5-dihydro-2H-pyrazolo[4,3-b]pyridin-2-yl)acetonitrile] | 0.944 | 0.2
31 | CC[C@H]1CN(C(C)c2ccc(OCC3CCOC3)cc2)[C@H](CC)CN1c1cc(=O)n(C)c2cn(CC#N)nc12 (some centres unmarked) [Compound A376] | 0.602 | 0.206
32 | CC[C@H]1CN(C(C)c2ccc(OCC3COC3)cc2)[C@H](CC)CN1c1cc(=O)n(C)c2cn(CC#N)nc12 (some centres unmarked) [Compound A379] | 0.571 | 0.294
33 | CC[C@H]1CN(C(C)c2ccc(OC3CCOCC3)cc2)[C@H](CC)CN1c1cc(=O)n(C)c2cn(CC#N)nc12 (some centres unmarked) [Compound A380] | 0.667 | 0.161
34 | CC[C@H]1CN(C(C)c2ccc(C(=O)N3CCC(F)(F)CC3)cc2)[C@H](CC)CN1c1cc(=O)n(C)c2cn(CC#N)nc12 (some centres unmarked) [Compound A382] | 0.499 | 0.079
35 | CC[C@H]1CN(C(C)c2cc(C)c(C)cn2)[C@H](CC)CN1c1cc(=O)n(C)c2cn(CC#N)nc12 (some centres unmarked) [Compound A385] | 0.498 | 0.481
36 | CC[C@H]1CN(C(C)c2ccc(C(C)(C)C#N)cn2)[C@H](CC)CN1c1cc(=O)n(C)c2cn(CC#N)nc12 (some centres unmarked) [Compound A386] | 0.418 | 0.689
37 | CC[C@H]1CN(C(C)c2ncc(OC(C)C)cc2F)[C@H](CC)CN1c1cc(=O)n(C)c2cn(CC#N)nc12 (some centres unmarked) [Compound A387] | 4.89 | 75
